As usually defined, the % inhibition is the drop in the measured response relative to a control, in per cent. As a reminder, the IC50 is the concentration at which inhibition is half-maximal. Higher therefore signals weaker potency in that assay.

From patent publication US20240317709A1, “Lysophosphatidic Acid Receptor Antagonists for Breast Cancer Treatment” (Lakehead University, priority 2023, published 2024) come the findings set out here.

Common to all, as to format: cell-based
For assay [1], the target named is LPA1 (Homo sapiens, UniProt Q92633). Description: in vitro cAMP assay using a CHO cell line overexpressing LPA1 receptor. Further details: GFP; host or cells: CHO-K1, transiently transfected. The settings on record: for % inhibition: cAMP assay, 1 μM LPA, 100 nM forskolin, test concentration not given. Background: Cyclic AMP is a second messenger, typically raised through Gs and lowered through Gi signalling.

The test system of assay [2] is MDA-MB-231 cells. Description: wound healing assay. As to conditions: LPA with 1f 0, 0.5, 1.0 or 1.5 mM, 48 h, FIG. 3A. The method, then: Wound healing assay is a well-established method to determine cell migration in vitro. Firstly, a scratch was created in the cell monolayer, and then cells migrate to close the scratch. Cell migration rate can be measured using this method.
Cells were seeded in a six-well plate at a density of 3×10^5 cells/well. When the cells formed a tight cell monolayer, a 200-μl plastic pipette tip was used to make a scratch. Cells were washed with PBS to remove cell debris, cultured in serum-free DMEM medium and exposed to LPA or LPA with 1f (0, 0.5, 1.0 or 1.5 mM) for 48 h.
Wound photographs were recorded at the indicated times and analyzed by ImageJ software. All assays were conducted three times in our study.

Assay [3] deals with MDA-MB-231 cells. Briefly: colony formation assay. The settings on record: LPA with 1f 0, 0.5, 1.0 or 1.5 mM, FIG. 2. As to the method:
In order to study the effect of LPA and the compound 1f on the proliferation, migration, and invasion of MDA-MB-231, several in vitro assays were performed. Colony formation assay is a cell survival assay based on the ability of a single cell to grow into a colony and was performed to evaluate cell proliferation (17).
MDA-MB-231 cells were trypsinized and plated in 6-well plate at a density of 1,000 cells/well and then cultured in 10% FBS DMEM. Cells were allowed to attach overnight and then exposed to LPA or LPA with 1f (0, 0.5, 1.0 or 1.5 mM). Forty-eight hours after chemical treatment, the media was replaced with fresh media, and the plates were incubated at 37° C. Ten days later, the cells were fixed and stained with 4% paraformaldehyde in 0.1% crystal violet. The number of colonies, defined as >50 cells/colony were counted, and the number of colonies were calculated using ImageJ.

Assay [4] deals with MDA-MB-231 cells. Description: transwell cell migration assay. The settings on record: LPA with 1f 0, 0.5, 1.0 or 1.5 mM, 48 h, FIG. 3B. The method, then: (§1) In addition, transwell migration/invasion assays were performed to further confirm the effect of LPA and 1f on cell migration and invasion. Transwell assay is based on a chamber of two media-filled partitions separated by a microporous membrane. Cells were plated in the upper chamber and are allowed to migrate to the lower chamber through the membrane pores with the stimulation of LPA and 1f. For the invasion assay, a layer of basement membrane extract was precoated on the chamber to block the pores of the membrane and prevent non-invasive cells from migrating through the membranes. Invasive cells are able to secret proteases which degrade the membrane extract in order to invade through the membrane.
(§2) Transwell assays were conducted in 24-well transwell plates (pore size: 8 μm) to assess the migratory and invasive capacities of MDA-MB-231 cells. For migration assays, 2×10^4 cells were placed in 200 μl of serum-free DMEM in the upper chamber and then 500 μl of DMEM containing 10% FBS was added to the lower chamber. For the invasion assays, the chamber inserts were precoated with 50 μl of 1:9 mixture of basement membrane extract (R&D Systems) and DMEM overnight in a 37° C. incubator, then 6×10^4 cells were seeded in the upper chamber. 500 μl of DMEM containing 10% FBS was added to the lower chamber. Cells were treated with LPA or LPA with 1f (0, 0.5, 1.0 or 1.5 mM) for 48 h. […]

In assay [5] the test system is MDA-MB-231 cells. Briefly: transwell cell invasion assay. As to conditions: basement membrane extract coated, LPA with 1f 0, 0.5, 1.0 or 1.5 mM, 48 h, FIG. 3B. As to the method:
as §1, §2

[6] abbreviates: concentration to reverse 50% of the inhibitory effect of 1 μM 18:1 LPA on forskolin-mediated cAMP production, CHO-K1 overexpressing LPA1.

Chain of LPA1 (Q92633 whole entry): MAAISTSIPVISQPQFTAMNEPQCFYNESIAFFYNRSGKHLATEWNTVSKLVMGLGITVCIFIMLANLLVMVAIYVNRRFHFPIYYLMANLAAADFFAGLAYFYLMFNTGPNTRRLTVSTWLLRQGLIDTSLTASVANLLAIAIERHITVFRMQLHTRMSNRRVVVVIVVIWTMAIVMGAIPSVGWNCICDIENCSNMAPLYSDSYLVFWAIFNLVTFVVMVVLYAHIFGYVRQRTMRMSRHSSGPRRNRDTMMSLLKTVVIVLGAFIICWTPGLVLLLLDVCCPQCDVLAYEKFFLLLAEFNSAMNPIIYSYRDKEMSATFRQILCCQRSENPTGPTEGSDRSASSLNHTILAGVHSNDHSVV

Take `Cc1nnn(-c2ccc(-c3ccc(C4(C(=O)O)CC4)cc3)cc2)c1NC(=O)OCc1ccc(F)cc1` [Compound 1b, 1-(4′-(5-((((4-fluorobenzyl)oxy)carbonyl)amino)-4-methyl-1H-1,2,3-triazol-1-yl)-[1,1′-biphenyl]-4-yl)cyclopropane-1-carboxylic acid]: in assay [1], the “% inhibition” value stood at 58.43%. Besides, the IC50 in assay [1] (setting [6]) amounted to 3340 nM.
`Cc1nnn(-c2ccc(-c3ccc(C4(C(=O)O)CC4)cc3)cc2)c1NC(=O)OCc1cccc(F)c1` [Compound 1c, 1-(4′-(5-((((3-fluorobenzyl)oxy)carbonyl)amino)-4-methyl-1H-1,2,3-triazol-1-yl)-[1,1′-biphenyl]-4-yl)cyclopropane-1-carboxylic acid]: in assay [1], the “% inhibition” value was found to be 77.1%. Moreover, 2150 nM corresponded to half-maximal inhibition in assay [1] (setting [6]) (IC50).
The like results for `Cc1nnn(-c2ccc(-c3ccc(C4(C(=O)O)CC4)cc3)cc2)c1NC(=O)OCc1ccccc1F` [Compound 1d, 1-(4′-(5-((((2-fluorobenzyl)oxy)carbonyl)amino)-4-methyl-1H-1,2,3-triazol-1-yl)-[1,1′-biphenyl]-4-yl)cyclopropane-1-carboxylic acid] were, in that order, 81.9% and 1490 nM.
The like results for `Cc1nnn(-c2ccc(-c3ccc(C4(C(=O)O)CC4)cc3)cc2)c1NC(=O)OC(C)c1ccc(F)cc1` (stereo not drawn) [Compound 1e, 1-(4′-(5-(((1-(4-fluorophenyl)ethoxy)carbonyl)amino)-4-methyl-1H-1,2,3-triazol-1-yl)-[1,1-biphenyl]-4-yl)cyclopropane-1-carboxylic acid] were, in that order, 102.1% and 93.3 nM.
Take `Cc1nnn(-c2ccc(-c3ccc(C4(C(=O)O)CC4)cc3)cc2)c1NC(=O)OC(C)c1cccc(F)c1` (stereo not drawn) [Compound 1f, 1-(4′-(5-(((1-(3-fluorophenyl)ethoxy)carbonyl)amino)-4-methyl-1H-1,2,3-triazol-1-yl)-[1,1′-biphenyl]-4-yl)cyclopropane-1-carboxylic acid]: the “% inhibition” value in assay [1] came to 109.8%. Moreover, in assay [1] (setting [6]), 16 nM corresponded to half-maximal inhibition (IC50) and the “IC50 (nM)” value is reported as “lower than the control compound”. The “inhibition of LPA-induced cell migration (wound healing)” value in assay [2] is “impeded cell migration dose-dependently”. In addition, the “inhibition of LPA-induced cell proliferation (colony formation)” value in assay [3] is “inhibited LPA-induced MDA-MB-231 cell proliferation in a dose-dependent manner”. Also, the “inhibition of LPA-induced cell migration (transwell)” value in assay [4] is “hindered by 1f dose-dependently”. Also, in assay [5], the “inhibition of LPA-induced cell invasion (transwell)” value is “hindered by 1f dose-dependently”.
In the case of `CCc1cccc(COC(=O)Nc2c(C)nnn2-c2ccc(-c3ccc(C4(C(=O)O)CC4)cc3)cc2)c1` [Compound 1h, 1-(4′-(5-((((3-ethylbenzyl)oxy)carbonyl)amino)-4-methyl-1H-1,2,3-triazol-1-yl)-[1,1′-biphenyl]-4-yl)cyclopropane-1-carboxylic acid], in assay [1], the “% inhibition” value is given as 115.7%. Moreover, half-maximal inhibition in assay [1] (setting [6]) (IC50) required 91.2 nM.
`Cc1nnn(-c2ccc(-c3ccc(C4(C(=O)O)CC4)cc3)cc2)c1NC(=O)NCc1ccccn1` [Compound 2a, 1-(4′-(4-methyl-5-(3-(pyridin-2-ylmethyl)ureido)-1H-1,2,3-triazol-1-yl)-[1,1′-biphenyl]-4-yl)cyclopropane-1-carboxylic acid]: the “% inhibition” value in assay [1] amounted to 41.8%. This compound also gave an IC50 in assay [1] (setting [6]) of 1000 nM.
With `Cc1nnn(-c2ccc(-c3ccc(C4(C(=O)O)CC4)cc3)cc2)c1NC(=O)NCc1ccc(F)cc1` [Compound 2b, 1-(4′-(5-(3-(4-fluorobenzyl)ureido)-4-methyl-1H-1,2,3-triazol-1-yl)-[1,1′-biphenyl]-4-yl)cyclopropane-1-carboxylic acid], the “% inhibition” value in assay [1] worked out at 40.5%. Besides, the IC50 in assay [1] (setting [6]) came to 3150 nM.
The like results for `Cc1nnn(-c2ccc(-c3ccc(C4(C(=O)O)CC4)cc3)cc2)c1NC(=O)NCc1cccc(F)c1` [Compound 2c, 1-(4′-(5-(3-(3-fluorobenzyl)ureido)-4-methyl-1H-1,2,3-triazol-1-yl)-[1,1′-biphenyl]-4-yl)cyclopropane-1-carboxylic acid] were, in that order, 88.1% and 2000 nM.
On to `Cc1nnn(-c2ccc(-c3ccc(C4(C(=O)O)CC4)cc3)cc2)c1NC(=O)NCc1ccccc1F` [Compound 2d, 1-(4′-(5-(3-(2-fluorobenzyl)ureido)-4-methyl-1H-1,2,3-triazol-1-yl)-[1,1′-biphenyl]-4-yl)cyclopropane-1-carboxylic acid], for which the “% inhibition” value in assay [1] is listed as 49.5%. Further, in assay [1] (setting [6]), the IC50 came to 4470 nM.
Turning to `Cc1nnn(-c2ccc(-c3ccc(C4(C(=O)O)CC4)cc3)cc2)c1NC(=O)N[C@H](C)c1ccc(F)cc1` [Compound 2e, (R)-1-(4′-(5-(3-(1-(4-fluorophenyl)ethyl)ureido)-4-methyl-1H-1,2,3-triazol-1-yl)-[1,1′-biphenyl]-4-yl)cyclopropane-1-carboxylic acid], in assay [1], the “% inhibition” value is 102.0%. The same compound returned an IC50 in assay [1] (setting [6]) of 780 nM.
In the case of `Cc1nnn(-c2ccc(-c3ccc(C4(C(=O)O)CC4)cc3)cc2)c1NC(=O)N[C@H](C)c1ccccc1` [Compound 2f, (R)-1-(4′-(4-methyl-5-(3-(1-phenylethyl)ureido)-1H-1,2,3-triazol-1-yl)-[1,1′-biphenyl]-4-yl)cyclopropane-1-carboxylic acid], the “% inhibition” value in assay [1] was found to be 108.1%. Further, the IC50 in assay [1] (setting [6]) came out at 242 nM.
The like results for `Cc1nnn(-c2ccc(-c3ccc(C4(C(=O)O)CC4)cc3)cc2)c1NC(=O)N[C@@H](C)c1ccccc1` [Compound 2g, (S)-1-(4′-(4-methyl-5-(3-(1-phenylethyl)ureido)-1H-1,2,3-triazol-1-yl)-[1,1′-biphenyl]-4-yl)cyclopropane-1-carboxylic acid] were, in that order, 92.7% and 299 nM.
The like results for `Cc1nnn(-c2ccc(-c3ccc(C4(C(=O)O)CC4)cc3)cc2)c1NC(=O)NC(C)c1ccccc1` (stereo not drawn) [Compound 2h, 1-(4′-(4-methyl-5-(3-(1-phenylethyl)ureido)-1H-1,2,3-triazol-1-yl)-[1,1′-biphenyl]-4-yl)cyclopropane-1-carboxylic acid] were, in that order, 83.8% and 240 nM.
